Measured values taken from patent publication US20200016145A1, “TREATMENT OF CHRONIC TRAUMATIC ENCEPHALOPATHY” (CTEC LLC, priority 2018, published 2020).
“Also recorded” adds a separate entry of the source.

Key:
Sprague Dawley rat [1] = assay: Morris water maze after blast injury (cognitive performance); assay type: in vivo
Protocol: (§1) The administration of salubrinal prior to bTBI was also evaluated in an animal model. Use of the salubrinal ameliorated neuropsychiatric deficits in the form of impulsive-like behavior as measured by the elevated plus maze test/protocol, and spatial memory as measured by the Morris water maze test/protocol. This example assessed the successful targeting of ER stress after TBI. […] A Sprague Dawley rat was positioned in a protective tube to prevent injury to the peripheral organs, and an acceleration wave was generated and allowed to collide with the skull of the rat. The intensity of the injury was adjusted in a step-wise manner by decreasing or increasing the thickness of the membrane that exploded with pressurized nitrogen gas. An injury paradigm of 50 PSI was selected, which correlates with human concussion, that is the most common type of injury linked to CTE. In FIG. 4, the peak in plot D illustrates the 50 PSI pressure wave. The Sprague Dawley rats were given either one injury, or six injuries over a two-week period. Various time points of sacrifice were chosen to look at markers of ER stress and tauopathy. In this example, the effect of targeting (turning off) ER stress on improved behavior was studied by utilizing the injury models and standard protocols for Morris water maze and elevated plus maze. The Morris water maze detected deficits in cognitive performance whereas the elevated plus maze evaluated impulsive-like behavior. […] ANOVA was used for statistical analysis with *=p<0.05, **=p<0.01, ***=p<0.001. When drug was compared to injury group #=p<0.05, ##=p<0.01, ###=p<0.001.

ER stress = assay: ER stress, tau kinase and apoptosis markers after blast-induced TBI (western blot, immunohistochemistry, PCR); assay type: in vivo, Sprague Dawley rat
Protocol: An animal model was used to evaluate TBI, and neuropathological specimens (donated by the Brain Injury Research Institute brain bank) were used to evaluate CTE. TBI was blast induced in the animal model. […] Salubrinal was administered to the animal model following the injury. The ER stress was modulated by the use of salubrinal. […] This example assessed the successful targeting of ER stress after TBI. […] A Sprague Dawley rat was positioned in a protective tube to prevent injury to the peripheral organs, and an acceleration wave was generated and allowed to collide with the skull of the rat. The intensity of the injury was adjusted in a step-wise manner by decreasing or increasing the thickness of the membrane that exploded with pressurized nitrogen gas. An injury paradigm of 50 PSI was selected, which correlates with human concussion, that is the most common type of injury linked to CTE. In FIG. 4, the peak in plot D illustrates the 50 PSI pressure wave. The Sprague Dawley rats were given either one injury, or six injuries over a two-week period. Various time points of sacrifice were chosen to look at markers of ER stress and tauopathy. Salubrinal was administered to the rats after injury to target ER stress. Salubrinal was administered by IP injection 30 minutes after injury using a dose of 1 mg/kg. […] Salubrinal-mediated CHOP reduction may be associated with preservation of the pro-form of Caspase-12 that when cleaved, has been associated with ER-mediated apoptosis or cell death. Reducing CHOP with salubrinal also may result in reduction of sustained oxidative stress and neuro-inflammation. LICOR western blot protocols, IHC world immunohistochemistry protocols, and Applied Biosystems PCR protocols were used for the assays. ANOVA was used for analysis with p<0.05 being statistically significant. *=p<0.05, **=p<0.01, ***=p<0.001. When the drug group was compared to the injury group #=p<0.05, ##=p<0.01, ###=p<0.001.

neuroinflammation = assay: Neuroinflammation markers after blast injury; assay type: in vivo, Sprague Dawley rat
Excerpt: This example assessed the successful targeting of ER stress after TBI. […] A Sprague Dawley rat was positioned in a protective tube to prevent injury to the peripheral organs, and an acceleration wave was generated and allowed to collide with the skull of the rat. The intensity of the injury was adjusted in a step-wise manner by decreasing or increasing the thickness of the membrane that exploded with pressurized nitrogen gas. An injury paradigm of 50 PSI was selected, which correlates with human concussion, that is the most common type of injury linked to CTE. In FIG. 4, the peak in plot D illustrates the 50 PSI pressure wave. The Sprague Dawley rats were given either one injury, or six injuries over a two-week period. Various time points of sacrifice were chosen to look at markers of ER stress and tauopathy. Salubrinal was administered to the rats after injury to target ER stress. Salubrinal was administered by IP injection 30 minutes after injury using a dose of 1 mg/kg. […] Salubrinal-mediated CHOP reduction may be associated with preservation of the pro-form of Caspase-12 that when cleaved, has been associated with ER-mediated apoptosis or cell death. Reducing CHOP with salubrinal also may result in reduction of sustained oxidative stress and neuro-inflammation. LICOR western blot protocols, IHC world immunohistochemistry protocols, and Applied Biosystems PCR protocols were used for the assays. ANOVA was used for analysis with p<0.05 being statistically significant. *=p<0.05, **=p<0.01, ***=p<0.001. When the drug group was compared to the injury group #=p<0.05, ##=p<0.01, ###=p<0.001. […] Measured components included NF kappa B (plot A), inducible nitric oxide synthase (iNOS) (plot B), interleukin 1 beta (IL-1β) (plot C), and tumor necrosis factor alpha (TNFα) (plot D). As shown in plots A, C and D, salubrinal administration (sTBI+SAL) reduced pro-inflammatory markers NFκB, IL-1β and TNFα, respectively.

Sprague Dawley rat [2] = assay: Elevated plus maze after blast injury (impulsive-like behavior); assay type: in vivo
Protocol: as §1

oxidative stress = assay: Oxidative stress markers after blast injury; assay type: in vivo, Sprague Dawley rat
Excerpt: This example assessed the successful targeting of ER stress after TBI. […] A Sprague Dawley rat was positioned in a protective tube to prevent injury to the peripheral organs, and an acceleration wave was generated and allowed to collide with the skull of the rat. The intensity of the injury was adjusted in a step-wise manner by decreasing or increasing the thickness of the membrane that exploded with pressurized nitrogen gas. An injury paradigm of 50 PSI was selected, which correlates with human concussion, that is the most common type of injury linked to CTE. In FIG. 4, the peak in plot D illustrates the 50 PSI pressure wave. The Sprague Dawley rats were given either one injury, or six injuries over a two-week period. Various time points of sacrifice were chosen to look at markers of ER stress and tauopathy. Salubrinal was administered to the rats after injury to target ER stress. Salubrinal was administered by IP injection 30 minutes after injury using a dose of 1 mg/kg. […] Salubrinal-mediated CHOP reduction may be associated with preservation of the pro-form of Caspase-12 that when cleaved, has been associated with ER-mediated apoptosis or cell death. Reducing CHOP with salubrinal also may result in reduction of sustained oxidative stress and neuro-inflammation. LICOR western blot protocols, IHC world immunohistochemistry protocols, and Applied Biosystems PCR protocols were used for the assays. ANOVA was used for analysis with p<0.05 being statistically significant. *=p<0.05, **=p<0.01, ***=p<0.001. When the drug group was compared to the injury group #=p<0.05, ##=p<0.01, ###=p<0.001. […] Measured components included carbonyls (plot A), superoxide (plot B), reactive oxygen species (ROS) (plot C), and NADPH oxidase 4 (NOX4) (plot D). As shown in A, B and […], administration of salubrinal (sTBI+SAL) reduced protein carbonyls, super-oxides, and total oxidative stress production, respectively.

[3] = bTBI animal model, administered following the injury
[4] = post-blast administration (FIG. 6)

Compound: CC/C=C\C/C=C\C/C=C\C/C=C\C/C=C\C/C=C\CCC(=O)O [DHA]
- cognitive learning, Morris water maze (Sprague Dawley rat [1]; after injury (FIG. 13 panel D)): improved
- retention of a learned event, probe trial (Sprague Dawley rat [1]; after injury (FIG. 13 panel E)): enhanced
- ER stress activator BiP (ER stress; three weeks following repetitive injury (FIG. 10 plot A)): inhibited
- tau kinase GSK3β (ER stress; three weeks following repetitive injury (FIG. 10 plot B)): inhibited

Compound: O=C(/C=C/c1ccccc1)NC(NC(=S)Nc1cccc2cccnc12)C(Cl)(Cl)Cl (stereo not drawn) [salubrinal, 3-phenyl-N-[2,2,2-trichloro-1-[[(8-quinolinylamino)thioxomethyl]amino]ethyl]-2-propenamide]
- NFκB (pro-inflammatory marker) (neuroinflammation; 24 hours after injury (FIG. 8 plot A)): reduced
- IL-1β (pro-inflammatory marker) (neuroinflammation; 24 hours after injury (FIG. 8 plot C)): reduced
- TNFα (pro-inflammatory marker) (neuroinflammation; 24 hours after injury (FIG. 8 plot D)): reduced
- neuropsychiatric deficits: spatial memory, Morris water maze (Sprague Dawley rat [1]; administered prior to bTBI): ameliorated
- GSK3β activity (ER stress; 1 mg/kg IP 30 minutes after injury): reduced
- CHOP (marker of ER stress) (ER stress; 1 mg/kg IP 30 minutes after injury, 24 hours after a single blast injury (FIG. 5 plot C)): prevented the surge; also recorded: significantly reduced
- GADD34 (marker of ER stress) (ER stress; 1 mg/kg IP 30 minutes after injury, 24 hours after a single blast injury (FIG. 5 plot E)): inhibited; also recorded: significantly reduced
- ER stress (ER stress; [3]): modulated
- markers of neural degeneration and apoptosis (ER stress; [3]): reducing
- CHOP by immunohistochemistry (ER stress; [4]): significantly reduced
- cleaved Caspase 3 (pro-apoptotic marker) by immunohistochemistry (ER stress; [4]): reduced
- impulsive-like behavior, time spent in the open arm of the elevated plus maze (Sprague Dawley rat [2]; administered after injury, 72 hours after the repeat injury (FIG. 12)): reduced
- impulsive-like behavior, time in the open arm of the elevated plus maze (Sprague Dawley rat [2]; administered after injury, seven days after a single injury (FIG. 11)): reduced
- neuropsychiatric deficits: impulsive-like behavior, elevated plus maze (Sprague Dawley rat [2]; administered prior to bTBI): ameliorated
- protein carbonyls (oxidative stress; 24 hours after injury (FIG. 7 plot A)): reduced
- super-oxides (oxidative stress; 24 hours after injury (FIG. 7 plot B)): reduced
- total oxidative stress production (oxidative stress; 24 hours after injury (FIG. 7 plot D)): reduced
